Target: Gamma-aminobutyric acid receptor subunit alpha-1 (Rattus norvegicus, UniProt P62813)
Sequence (P62813 whole entry): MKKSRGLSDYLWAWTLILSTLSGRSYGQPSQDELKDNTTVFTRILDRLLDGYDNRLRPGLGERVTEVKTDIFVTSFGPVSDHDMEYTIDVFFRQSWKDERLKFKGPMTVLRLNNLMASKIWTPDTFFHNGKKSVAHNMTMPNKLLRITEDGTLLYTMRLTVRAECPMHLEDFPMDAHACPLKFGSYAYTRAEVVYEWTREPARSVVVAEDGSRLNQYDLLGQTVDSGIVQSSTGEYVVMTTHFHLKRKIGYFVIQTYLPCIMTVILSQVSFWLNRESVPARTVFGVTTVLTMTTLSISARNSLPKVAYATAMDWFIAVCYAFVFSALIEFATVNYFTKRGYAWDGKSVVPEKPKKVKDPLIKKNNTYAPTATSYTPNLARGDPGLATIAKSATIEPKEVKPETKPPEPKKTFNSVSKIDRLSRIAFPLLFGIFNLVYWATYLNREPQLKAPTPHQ

Row | Compound | Ki [nM]
1 | O=C1CN=C(c2ccccc2Cl)c2cc([N+](=O)[O-])ccc2N1 [5-(2-chlorophenyl)-7-nitro-1,3-dihydro-2H-1,4-benzodiazepin-2-one] | 27
2 | Cc1ncc2n1-c1ccc(Cl)cc1C(c1ccccc1F)=NC2 [12-chloro-9-(2-fluorophenyl)-3-methyl-2,4,8-triazatricyclo[8.4.0.0^{2,6}]tetradeca-1(10),3,5,8,11,13-hexaene] | 26
3 | O=C1Nc2ccc(Cl)cc2C(c2ccccc2)=NC1O (centres undefined) [CAS_604-75-1] | 350
4 | CN1C(=O)CN=C(c2ccccc2F)c2cc([N+](=O)[O-])ccc21 [Flunitrazepam] | 29

Reference: BindingDB's records for PubMed 8930187 (Leiden University, 1996)
